From BindingDB's records for doi:10.7270/Q2J96B77 (D3R/Abbott, 2020)

Target: Cathepsin S (Homo sapiens, UniProt P25774)
Assay: D3R2020

Chain of Cathepsin S (P25774 whole entry): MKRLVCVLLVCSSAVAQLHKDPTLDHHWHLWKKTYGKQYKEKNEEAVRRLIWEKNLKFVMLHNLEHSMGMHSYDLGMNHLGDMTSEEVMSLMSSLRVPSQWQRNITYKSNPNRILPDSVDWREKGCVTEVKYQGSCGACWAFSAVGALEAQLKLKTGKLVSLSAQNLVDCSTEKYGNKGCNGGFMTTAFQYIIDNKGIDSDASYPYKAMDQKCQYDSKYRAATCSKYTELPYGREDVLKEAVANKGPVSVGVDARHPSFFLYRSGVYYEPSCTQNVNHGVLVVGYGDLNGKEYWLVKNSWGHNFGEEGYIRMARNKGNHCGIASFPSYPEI

Structure (SMILES) | IC50
O=C(CO)N1CCc2c(c(-c3ccc(Cl)c(C#Cc4ccc(CNCc5ccc(Cl)cc5)cc4)c3)nn2CCCN2CCSCC2)C1 [CatS_40] | 95 nM
CS(=O)(=O)N1CCc2c(c(-c3ccc(Cl)c(C#Cc4ccc(CN[C@@H]5c6ccccc6C[C@@H]5O)cc4)c3)nn2CCCN2CCN(c3ccccc3)CC2)C1 [CatS_77] | 35 nM
CS(=O)(=O)N1CCc2c(c(-c3ccc(C(F)(F)F)c(SCC(=O)N4CCC[C@@H]4C(N)=O)c3)nn2CCCN2CCC(N3CCCC3=O)CC2)C1 [CatS_129] | 85 nM
NC(=O)N1CCc2c(c(-c3ccc(Cl)c(CCc4ccc(Cl)cc4)c3)nn2C[C@@H](O)CN2CCC(C3CCNCC3)CC2)C1 [CatS_117] | 15 nM
NC(=O)C(=O)N1CCc2c(c(-c3ccc(Cl)c(C#Cc4ccc(Cl)c(CN[C@@H](CO)c5ccccc5)c4)c3)nn2CCCN2CCSCC2)C1 [CatS_88] | 25 nM
CC(=O)N1CCc2c(c(-c3ccc(C(F)(F)F)c(SCC(=O)N4CCCC4)c3)nn2C[C@H](O)CN2CCC(C(C)(C)O)CC2)C1 [CatS_11] | 160 nM
CN(Cc1ccc(Cl)cc1)Cc1ccc(C#Cc2cc(-c3nn(CCCN4CCN(c5ccccc5)CC4)c4c3CN(S(C)(=O)=O)CC4)ccc2Cl)cc1 [CatS_76] | 72 nM
CS(=O)(=O)N1CCc2c(c(-c3ccc(Cl)c(C#Cc4cccc(CNCc5ccc(Cl)cc5)c4)c3)nn2CCCN2CCN(c3ccccc3)CC2)C1 [CatS_78] | 65 nM
CC(C)(C)C1CCN(CCCn2nc(-c3ccc(C(F)(F)F)c(CNCc4ccc(F)cc4)c3)c3c2CCN(S(C)(=O)=O)C3)CC1 [CatS_12] | 30 nM
CC(=O)NC1CCN(CCCn2nc(-c3ccc(C(F)(F)F)c(SCCO)c3)c3c2CCN(S(C)(=O)=O)C3)CC1 [CatS_132] | 340 nM
CS(=O)(=O)N1CCc2c(c(-c3ccc(Cl)c(CCCN4CCOCC4)c3)nn2CCCN2CCC(N3CCCC3=O)CC2)C1 [CatS_123] | 1170 nM
CC(C)=CC(=O)NCc1cc(-c2nn(CCCN3CCOCC3)c3c2CN(C(=O)CC2CCN(C(=O)OC(C)(C)C)CC2)CC3)ccc1C(F)(F)F [CatS_18] | 170 nM
CC(=O)N1CCN(CCCn2nc(-c3ccc(C(F)(F)F)c(SCC(=O)N4CCOCC4)c3)c3c2CCN(S(C)(=O)=O)C3)CC1 [CatS_131] | 310 nM
C[C@H]1COCCN1CCCn1nc(-c2ccc(Cl)c(C#Cc3ccc(Cl)c(CNCc4ccccc4)c3)c2)c2c1CCN(C(=O)C(N)=O)C2 [CatS_102] | 15 nM
NC(=O)N1CCc2c(c(-c3ccc(Cl)c(C#Cc4ccc(Cl)c(CN5CCOCC5)c4)c3)nn2CCCN2CCCCC2)C1 [CatS_84] | 35 nM
CCNCc1cc(C#Cc2cc(-c3nn(CCCN4CCCCC4)c4c3CN(C(=O)C(N)=O)CC4)ccc2Cl)ccc1Cl [CatS_82] | 15 nM
C[C@H]1COCCN1CCCn1nc(-c2ccc(Cl)c(C#Cc3ccc(C(=O)NCCN4CCOCC4)cc3)c2)c2c1CCN(C(=O)C(N)=O)C2 [CatS_100] | 45 nM
CC(=O)NC1CCN(CCCn2nc(-c3ccc(Cl)c(C#Cc4ccc5c(c4)CNCC5)c3)c3c2CCN(S(C)(=O)=O)C3)CC1 [CatS_50] | 37 nM
C[C@H]1COCCN1CCCn1nc(-c2ccc(Cl)c(C#Cc3ccc(Cl)c(C(=O)NC[C@@H]4CCCN4)c3)c2)c2c1CCN(C(=O)C(N)=O)C2 [CatS_101] | 25 nM
CC(C)CCNCc1cc(-c2nn(CCCN3CCC(N4CCCC4=O)CC3)c3c2CN(S(C)(=O)=O)CC3)ccc1C(F)(F)F [CatS_126] | 240 nM
CS(=O)(=O)N1CCc2c(c(-c3ccc(Cl)c(C#Cc4ccc(CNCc5ccc(Cl)cc5)cc4)c3)nn2CCCN2CCC(N3CCCC3=O)CC2)C1 [CatS_43] | 18 nM

Structure (SMILES) | IC50
CS(=O)(=O)N1CCc2c(c(-c3ccc(Cl)c(C#Cc4ccc(CNCC(F)(F)F)cc4)c3)nn2CCCN2CCC(N3CCCC3=O)CC2)C1 [CatS_56] | 95 nM
CNCCCNC(=O)c1ccc(C#Cc2cc(-c3nn(CCCN4CCOC[C@@H]4C)c4c3CN(C(=O)C(N)=O)CC4)ccc2Cl)cc1 [CatS_111] | 35 nM
CS(=O)(=O)N1CCc2c(c(-c3ccc(C(F)(F)F)c(CNCc4ccc(F)cc4)c3)nn2CCCN2CCC(C3CCCCC3)CC2)C1 [CatS_26] | 15 nM
CC(C)(O)CNCc1cc(C#Cc2cc(-c3nn(CCCN4CCSCC4)c4c3CN(C(=O)C(N)=O)CC4)ccc2Cl)ccc1Cl [CatS_87] | 25 nM
CC(C)=CC(=O)NCc1cc(-c2nn(CCCN(C)C)c3c2CN(C(=O)CC2CCNCC2)CC3)ccc1C(F)(F)F [CatS_16] | 260 nM
CS(=O)(=O)N1CCc2c(c(-c3ccc(Cl)c(C#Cc4ccc(C=O)cc4)c3)nn2CCCN2CCOCC2)C1 [CatS_64] | 110 nM
Cn1c(=O)n(C2CCN(CCCn3nc(-c4ccc(C(F)(F)F)cc4)c4c3CCN(C(=O)c3c[nH]cn3)C4)CC2)c2ccccc21 [CatS_3] | 55 nM
COC(=O)CNCc1cc(C#Cc2cc(-c3nn(CCCN4CCOC[C@@H]4C)c4c3CN(C(N)=O)CC4)ccc2Cl)ccc1Cl [CatS_109] | 25 nM
CC1(C)CCN(C[C@H](O)Cn2nc(-c3ccc(C(F)(F)F)c(CNCc4ccc(F)cc4)c3)c3c2CCN(S(C)(=O)=O)C3)CC1 [CatS_8] | 74 nM
C[C@H]1COCCN1CCCn1nc(-c2ccc(Cl)c(CCc3ccc(CNCc4ccc(Cl)cc4)cc3)c2)c2c1CCN(C(=O)C(N)=O)C2 [CatS_95] | 35 nM
COc1ccccc1C1CCN(C[C@H](O)Cn2nc(-c3ccc(C(F)(F)F)c(SCCN4CCCCC4)c3)c3c2CCNC3)CC1 [CatS_5] | 200 nM
NC(=O)N1CCc2c(c(-c3ccc(Cl)c(C#Cc4ccc(CN[C@@H]5CCCc6ccccc65)cc4)c3)nn2CCCN2CCOCC2)C1 [CatS_80] | 98 nM
NC(=O)C(=O)N1CCc2c(c(-c3ccc(Cl)c(C#Cc4ccc(Cl)c(C(=O)N[C@@H](CO)c5ccccc5)c4)c3)nn2CCCN2CCSCC2)C1 [CatS_89] | 25 nM
C[C@H]1COCCN1CCCn1nc(-c2ccc(Cl)c(C#Cc3ccc(Cl)c(CNCCCO)c3)c2)c2c1CCN(C(N)=O)C2 [CatS_104] | 20 nM
COC(=O)[C@@H]1Cc2ccc(C#Cc3cc(-c4nn(CCCN5CCOCC5)c5c4CN(S(C)(=O)=O)CC5)ccc3Cl)cc2CN1 [CatS_71] | 65 nM
CS(=O)(=O)N1CCc2c(c(-c3ccc(Cl)c(C#Cc4ccc(CN[C@H](CO)c5ccccc5)cc4)c3)nn2CCCN2CCN(c3ccccn3)CC2)C1 [CatS_75] | 25 nM
CC1CCN(CCSc2cc(-c3nn(C[C@@H](O)CN4CCC(N5C[C@@H](O)CC5=O)CC4)c4c3CN(S(C)(=O)=O)CC4)ccc2C(F)(F)F)CC1 [CatS_13] | 58 nM
CS(=O)(=O)N1CCc2c(c(-c3ccc(Cl)c(C#Cc4ccc(CNCc5ccc(Cl)cc5)cc4)c3)nn2CCCN2CCN(C3CC3)CC2)C1 [CatS_17] | 64 nM
CC(C)(C)OC(=O)N1CCC(C2CCN(C[C@H](O)Cn3nc(-c4ccc(Cl)c(CCc5ccc(Cl)cc5)c4)c4c3CCN(C(N)=O)C4)CC2)CC1 [CatS_121] | 25 nM
C[C@H]1COCCN1CCCn1nc(-c2ccc(Cl)c(C#Cc3ccc(CNCc4ccc(Cl)cc4)cc3)c2)c2c1CCN(S(C)(=O)=O)C2 [CatS_98] | 76 nM
